Data reported in PubChem BioAssay AID1996.
≈ marks a conversion by molar mass, not a printed value.

Settings: buffer; pH 7.4; 200.0 µM

SMILES	solubility kinetic
COC(=O)CNC(=O)COC(=O)Cc1ccc(Cl)cc1	> 45 µg/mL
Cc1cc(Br)cc(Cl)c1OC(=O)c1ccncc1	9.5 µg/mL (≈ 29.1 µM)
O=S(=O)(c1ccc(Cl)cc1)N1CCCC(C(F)(F)F)C1 (stereo unspecified)	1 µg/mL (≈ 3.05 µM)
O=C(CCn1c(=O)sc2ccccc21)NC1CCCCC1	27.4 µg/mL (≈ 90 µM)
Brc1cc(Br)c2nc3c(cc2c1)CCC3	1.9 µg/mL (≈ 5.81 µM)
CCOC(=O)c1sc(-c2ccc(C(F)(F)F)cc2)nc1O	> 47.6 µg/mL
CC(C)(C)c1ccc(-c2noc(CCC(=O)N3CCOCC3)n2)cc1	44.2 µg/mL (≈ 129 µM)
CCC1CO/C(=C(\C(=C(Cl)Cl)N2CCOCC2)[N+](=O)[O-])N1 (stereo unspecified)	> 50.7 µg/mL
CC(C)NC(=O)c1ccc2c(c1)N(CC(=O)N1CCCCC1)C(=O)C(C)(C)O2	44.8 µg/mL (≈ 116 µM)
Cc1cc(-c2ccc(Cl)cc2Cl)c(C#N)c(=O)[nH]1	3.4 µg/mL (≈ 12.2 µM)
COc1ccc(C(=O)OC(C)CN2CCOCC2)cc1.Cl (stereo unspecified)	> 47.4 µg/mL
Cc1cc(=O)[nH]c(-c2cccs2)n1	> 28.8 µg/mL
CN(C)c1c(N)c(=O)oc2ccccc12	27.3 µg/mL (≈ 134 µM)
O=C(Nc1cccc(F)c1)N1CCCCCC1	> 35.4 µg/mL
CCC(C(=O)Nc1ccc(Cl)cc1)N1CCCC1=O (stereo unspecified)	41.3 µg/mL (≈ 147 µM)
O=[N+]([O-])c1ccccc1CN1CCN(c2ncccn2)CC1	34.8 µg/mL (≈ 116 µM)
CC(C)N1CCC(=NNC(=O)c2cccs2)CC1	> 39.8 µg/mL
O=C(COC(=O)c1ccccc1)NC12CC3CC(CC(C3)C1)C2	9.2 µg/mL (≈ 29.4 µM)
CCCn1nc(C(=O)NC2CC2)c2ccccc2c1=O	> 40.7 µg/mL
CC1C(Br)C(=O)NC(=O)N1Cc1ccccc1 (stereo unspecified)	41.4 µg/mL (≈ 139 µM)
C[C@@H](C(=O)N1CCN(c2ccccc2)CC1)N1C(=O)C2CC=CCC2C1=O (stereo partly specified)	> 55.1 µg/mL
Cc1c(C(=O)N2CCCCC2)oc2ccccc12	32 µg/mL (≈ 132 µM)
CC(=O)Nc1ccc(CN2CCCCCC2)cc1	33.9 µg/mL (≈ 138 µM)
Cc1cc(C)cc(NC(=S)NC(=O)C2CC2)c1	30 µg/mL (≈ 121 µM)
Cc1nc(N2CCOCC2)nc(N2CCC(C)CC2)c1[N+](=O)[O-]	12.6 µg/mL (≈ 39.2 µM)
Cc1nn(CC(=O)NC(C)C)c(C)c1[N+](=O)[O-]	> 36 µg/mL
CCOc1cc2c(C#N)c(N3CCNCC3)nc(N)c2c(N)n1	1.3 µg/mL (≈ 4.15 µM)
N/C(=N\OC(=O)Nc1cccc(C(F)(F)F)c1)c1ccno1	18.7 µg/mL (≈ 59.5 µM)
COc1cc2c(cc1OC)CN(c1ccc(F)cc1[N+](=O)[O-])CC2	17.8 µg/mL (≈ 53.6 µM)
CCOCCCNC(=O)/C(C#N)=C/c1ccc(C(=O)OC)cc1	19.1 µg/mL (≈ 60.4 µM)

Further lines, results first:

solubility kinetic	SMILES
15.4 µg/mL (≈ 45.3 µM)	O=C(COC(=O)c1cc(=O)[nH]c2ccccc12)Nc1ccc(F)cc1
37.3 µg/mL (≈ 119 µM)	O=c1c2ccccc2ncn1CCCCOc1ccccc1F
15.6 µg/mL (≈ 40.9 µM)	CSc1nc(C)nc(N/C=C(\C#N)S(=O)(=O)c2ccccc2Cl)n1
15.9 µg/mL (≈ 45 µM)	CCN(C1CCS(=O)(=O)C1)S(=O)(=O)c1ccc2ccccc2c1 (stereo unspecified)
1.4 µg/mL (≈ 4.08 µM)	Cc1cc(N2CC(C(=O)Nc3nccs3)CC2=O)ccc1C(C)C (stereo unspecified)
21.5 µg/mL (≈ 92.6 µM)	c1ccc(-c2nccnc2-c2ccccc2)cc1
1.9 µg/mL (≈ 6.12 µM)	CCOc1ccccc1NC(=O)CN1CCc2ccccc2C1
62.5 µg/mL (≈ 130 µM)	COc1ccc(S(=O)(=O)N2CCCCC2)cc1NS(=O)(=O)c1ccc(CNC(C)=O)cc1
2.9 µg/mL (≈ 11.2 µM)	O=C(Nc1ccccn1)Nc1ccccc1[N+](=O)[O-]
> 29.9 µg/mL	Cc1cc(=O)[nH]c2c3ccccc3nn12
> 35.1 µg/mL	CCc1ccc[n+](-c2nc([O-])sc2C=O)c1
< 0.7 µg/mL	COc1ccc(CNC(=O)c2cc(=O)c3cc(C)c(C)cc3o2)cc1
< 0.3 µg/mL	CC(C)c1ccc(NS(=O)(=O)c2cccc3cccnc23)cc1
< 0.3 µg/mL	CSc1nccc(-c2sc(SC)c(C#N)c2-c2ccccc2)n1
> 46.7 µg/mL	CCCCn1c(CCNC(=O)c2ccco2)nc2ccccc21
48.6 µg/mL (≈ 142 µM)	CCN(CC)C(=O)C(Oc1ccc(C)nc1[N+](=O)[O-])c1ccccc1 (stereo unspecified)

solubility kinetic	SMILES
7.9 µg/mL (≈ 23.6 µM)	O=C(NCc1csc(-c2cccs2)n1)c1cccc(Cl)c1
< 0.3 µg/mL	COc1cccc(-c2cc(C(=O)NCc3cccs3)no2)c1
21.4 µg/mL (≈ 65 µM)	CCOc1ccc(C(=O)O/N=C(\N)c2ccccn2)cc1OCC
> 48.1 µg/mL	CCN(CC)C(=O)c1cc(Cl)ccc1NC(=O)c1ccco1
> 47 µg/mL	CN(Cc1cn(C)nc1-c1ccccc1F)Cc1nccn1C
8 µg/mL (≈ 26.6 µM)	Cc1nc2ccc(NC(=O)Cc3ccccc3F)cc2s1
11.5 µg/mL (≈ 32.6 µM)	Cc1cccc(NC(=O)NCCN2CCN(c3ccccc3)CC2)c1C
5.8 µg/mL (≈ 20.8 µM)	Cc1ccc(C(=O)NC2CCc3ccccc3C2=O)cc1 (stereo unspecified)
45.1 µg/mL (≈ 133 µM)	COc1ccc(NC(=S)Nc2cnc3ccccc3c2)c(OC)c1
27.5 µg/mL (≈ 86.1 µM)	CN(C)C(CNC(=O)c1ccc2ccccc2n1)c1ccccc1 (stereo unspecified)
> 36.8 µg/mL	Cc1ccccc1OCCNC(=O)c1ccco1
> 51.1 µg/mL	O=C1CN(C(=O)COC(=O)COc2ccccc2)c2ccccc2N1
> 28.1 µg/mL	Nc1ccc(CCn2ccnc2)cc1
2.4 µg/mL (≈ 7.35 µM)	COc1ccc(C(=O)NC2CCCc3ccccc32)cc1[N+](=O)[O-] (stereo unspecified)
5.3 µg/mL (≈ 17.3 µM)	COc1ccc(NS(=O)(=O)c2c(C)cc(C)cc2C)cn1
